Several values for one entry are separate records, joined by “and”; a condition that tells them apart may be missing. Identical values can stand only once. Counter-ions that a name gives are not always drawn. Like-named read-outs stand apart in the source and are kept apart here.
Experiments:
[1] = system: S. typhosa LPS; parameters: species or system mice; conditions: mouse, in vivo; for Survival increase (%): iv
[2] = system: E. coli LPS; parameters: species or system mice; conditions: mouse, in vivo
[3] = system: TNF; assay: Serum TNF after Salmonella typhosa LPS in mice; assay type: in vivo; conditions: 6 mg/kg i.v., −30/+5 min schedule, LPS control 154.2
Protocol: Animals were treated intraperitoneally (i.p.) with S. typhosa LPS. Prior to use, the endotoxin was first dissolved in sterile saline and then injected in a volume of 200 μL, at the dose of 27.0 mg/kg, corresponding to about the LD80.
The compounds tested were administered intravenously (i.v.) in a volume of 200 μL of sterile saline at the dose approximately corresponding to 1/10 LD50, 30 min before and again 5 min after the endotoxic challenge (LPS).
In both experimental models, blood samples were taken 90 min after the challenge (peak serum TNF level).
Ether-anaesthetised mice were bled by retro-orbital sinus puncture.
Blood samples were incubated at room temperature for 2 h and the serum thus obtained was centrifuged for 20 min at 3000 rpm and stored at −80° C. pending TNF assay.
TNF biological activity was determined in RPMI medium containing 1% FCS.
50 μL/well of serial dilutions of samples containing TNF were added directly to the Primaria microtiter plates.
The experimental conditions utilised were the same as those previously described.
Data were analysed statistically using the one-tailed Student's t test.

[4] = system: SEB (Staphylococcus aureus) enterotoxin; parameters: species or system mice; conditions: mouse, in vivo
[5] = system: TNF; assay: TNF production induced by LPS in rat blood culture; assay type: cell-based
[6] = system: TNF; parameters: species or system mice; conditions: mouse, in vivo
[7] = system: TNF; parameters: species or system mice; conditions: mouse, in vivo; remark: listed apart in the source
[8] = system: IL-1β; parameters: species or system mice; conditions: mouse, in vivo
[9] = system: IL-6; parameters: species or system mice; conditions: mouse, in vivo
[10] = system: IFN-γ; parameters: species or system mice; conditions: mouse, in vivo

Compound | Dead/Total [1] | Survival increase (%) [1] | Dead/Total [2] | Survival increase (%) ([2]; iv) | effect on lethality (in words) [1] | Dead/Total [4] | Survival increase (%) ([4]; iv) | also measured
COc1cc2c(cc1F)CC[C@@H](N)C2 (racemic) [ST 626, (R,S)-2-amino-6-fluoro-7-methoxytetraline hydrochloride, reference compound] | 6/20 | +40% | 21/28 | +11% |  |  |  | TNF (U/mL) Mean [3]: 35.0 U/mL
CC(=O)c1cc2c(cc1C)CC[C@@H](N)C2.Cl (racemic) [ST 1274, (R,S)-7-acetyl-2-amino-6-methyltetraline hydrochloride] | 10/20 | +40% | 5/10 |  | significantly reduce the lethality | 0/10 | +90% | 
Cc1cc2c(cc1F)CC[C@@H](N)C2.Cl (racemic) [ST 1275, (R,S)-2-amino-6-fluoro-7-methyltetraline hydrochloride] | 6/10 | +40% | 5/10 |  | significantly reduce the lethality | 1/10 | +80% | 
Cl.N[C@@H]1CCc2cc(F)c(O)cc2C1 [ST 1238, R(+)-2-amino-6-fluoro-7-hydroxytetraline hydrochloride] |  |  |  | +60% |  |  | +70% | Survival increase (%) [2]: +44%; effect on lethality (in words) [2]: significantly reduces the lethality; Dead/Total ([2]; hydrochloride): 5/20 and 7/19; Survival increase (%) [4]: +70%; protective effect (in words) [4]: extremely significant protective effect; Dead/Total ([4]; hydrochloride): 1/20 and 4/20; TNF (mean % values) [5]: 61%; reduction of TNF production ([5]; rat blood cultures stimulated with LPS, compound 50 μM): 39%; effect on TNF levels (in words) [6]: significantly reduces TNF levels; TNF (U/mL) Mean [7]: 6.2 U/mL; TNF (U/mL) mean [7]: 27.0 U/mL; effect on TNF production (in words) [7]: significantly reduces TNF production; IL-1β (pg/mL) Mean [8]: 0.9 pg/mL; IL-6 (pg/mL) Mean [9]: 599 pg/mL; effect on IL-6 production (in words) [9]: significantly reduces the production; IFN-γ (pg/mL) Mean [10]: 25 pg/mL; effect on IFN-γ production (in words) [10]: significantly reduces the production

Reference: patent US6849663B2, “2-Aminotetralines, a process for their preparation, and pharmaceutical compositions, for the prevention and therapeutic treatment of inflammatory and/or autoimmune pathologies” (Sigma-Tau Industrie Farmaceutiche Riunite S.p.A., priority 1997, dated 2005)
